System: inflammatory cell-types in the lungs
Parameters: species or system transgenic mice B6.Cg-Tg(K18-ACE2)2Prlmn/J
Conditions: mouse, in vivo, ip

Sequence: LQEEDTGEYGCV (TLT-1 peptide) [LR12]
- CD4+ T cells in lungs vs vehicle: no effect
- CD8+ T cells in lungs vs vehicle: no effect
- CD45+ cells in lungs vs vehicle: decrease
- NK cells in lungs vs vehicle: no effect
- NKT cells in lungs vs vehicle: lower number
- number of monocytes-derived macrophages in lungs vs vehicle: lower
- number of neutrophils in lungs vs vehicle: lower
- total number of cells in lungs vs vehicle: did not differ
